One assay concerns nodY-lacZ. The assay can be described thus: nodY-lacZ fusion induction by genistein in B. japonicum. The assay is classed as cell-based, Bradyrhizobium japonicum. As to conditions: for Effect on nodY-lacZ expression: 0.025 μM genistein for five hours, with or without 500 μM FeCl3. Here is the method:
(§1) Bacterial Stains, plasmids and culture conditions. For routine bacterial growth, B. japonicum cells were maintained on RDY medium (So, J. -S. et al. [1987] Mol. Gen. Genet. 207:15-23). Bacteria were grown in minimal medium (Bergensen, F. J. [1961] Aust. J. Biol. Sci. 14:349-360) for β-galactosidase activity. As required, antibiotics were used at the following concentrations, Cm (30 μg/ml), Sm (100 μg/ml), Sp (100 μg/ml), Tc (100 μg/ml). The B. japonicum strains used in this study were Bj110-42, BJAlac12, BJAlac23, BJAlac13 and BJ110-1248-1, ZB977, SL101 and Bj110-573. These strains harbored the following translational fusions; BJ110-1248-1 (nodD2-lacZ, plasmid pRJ1248, Dockendorff et al. [1994] Mol. Plant-Microbe Interact. 7:596-602), ZB977 (nodY-lacZ, plasmid pZB32, Banfalvi et al. [1988] Mol. Gen. Genet. 214:420-424), SL101 (npt-lacZ, Yuen, J. P.-Y and G. Stacey [1996] Mol. Plant-Microbe Interact. 9:424-428), and Bj110-573 (nodC-lacZ, chromosomally integrated fusion, Dockendorff et al. [1994] Mol. Plant-Microbe Interact 7:596-602). Strains Bj110-42, BJAlac23, BJAlac12, BJAlac13 harbored nolA-lacZ translational fusions encoded on plasmids pBGALac1, pNMAlac23, pNMAlac13, pNMAlac12 respectively (Garcia et al. [1996] Mol. Plant-Microbe Interact. 9:625-635; Loh et al. [1999] J. Bacteriol. 181:1544-1554). Plasmid pNMAlac23 contained mutations to ATG2 and ATG3 of nolA and allowed the specific expression of NolA1-lacZ. In contrast, plasmids pNMAlac13 (mutations to ATG1 and ATG3) and pNMAlac12 (mutation to ATG1 and ATG3, Loh et al. [1999] J. Bacteriol. 181:1544-1554) only expressed NolA2-lacZ and NolA3-lacZ, respectively.
This view is supported experimentally by the following two results.
The levels of nod gene expression were also found to be affected by IND-1.

The test system of the next assay is nolA-lacZ fusion. In words: nolA-lacZ (nolA1,2,3-lacZ) fusion β-galactosidase assay in B. japonicum. Type of assay: cell-based, Bradyrhizobium japonicum. The conditions noted are these: for Induction of nolA expression (in words): B. japonicum harboring nolA-lacZ fusion. Here is the method: as §1
Typically, B. japonicum cells are found in high population density in commercial inoculants. To determine if the bacterial nolA inducer was present in commercial inoculant, three soybean inoculants from two commercially available sources were extracted with butanol, and these extracts analyzed for their ability to induce the nolA-lacZ fusions.
As shown in Tables 2-3 and FIG. 11C, an inducer of nolA-lacZ and nodD2-lacZ expression was detected in conditioned medium from B. japonicum cultures grown to a high population density. […] The nolA inducer present in the conditioned medium was lost after dialysis using a membrane with a cutoff at 3 kDa (Fisher Scientific, Pittsburgh, Pa.).

In another assay the test system is nodC-lacZ. In words: nodC-lacZ fusion induction by genistein in B. japonicum Bj110-573. The assay is classed as cell-based, Bradyrhizobium japonicum. As to conditions: 0.025 μM genistein, 5 hours; cells harvested at high population densities (A600=1.62 or 3.22). Here is the method:
as §1, with “Plasmid pNMAlac23 contained mutations to ATG2 and ATG3 of nolA and allowed the specific expression of NolA1-lacZ. In contrast, plasmids pNMAlac13 (mutations to ATG1 and ATG3) and pNMAlac12 (mutation to ATG1 and ATG3, Loh et al. [1999] J. Bacteriol. 181:1544-1554) only expressed NolA2-lacZ and NolA3-lacZ, respectively.” left out

A further assay concerns CDF production. In words: CDF production in B. japonicum cultures grown with iron. Type of assay: cell-based, Bradyrhizobium japonicum. The conditions noted are these: Fe^3+ added to B. japonicum cultures.
Assay [1] has as its system nodule occupancy by the NwsB mutant. The assay can be described thus: Nodule occupancy competition assay, NwsB mutant versus wild-type. The conditions noted are these: 25 μM BEHP; NwsB mutant and USDA110 at different ratios; 21 days post inoculation. The assay is classed as in vivo, Glycine max. Here is the method: Different ratios of B. japonicum USDA110 and B. japonicum NwsB mutant were innoculated on soybean plants grown in growth pouches. At the time of innoculation, the root tip (RT) mark was noted on the outside of the pouches. Nodules were extracted 21 days post innoculation and the extracts were plated on RDY plates. Single colonies were picked and tested for streptomycin resistance (a marker for the NwsB mutant). (A) is above RT at time of innoculation; (B) below RT at time of innoculation.
We have generated, by recombinant means, mutations in the nwsB gene. The NwsB mutant appears to be defective in the recognition of the quorum signal and we have performed plant tests with the mutant in competition assays with the wild-type bacteria. In these assays, the effect of IND-1 (BEHP) on the ability of the NwsB mutant to nodulate soybean in the presence of wild-type bacteria (at different cell ratios) was examined. […] Nodule occupancy was scored both above (treated area) and below (new root growth) the root tip mark at the time of inoculation. […] These studies were conducted using 25 μM levels of BEHP.

The next assay relates to NolA1-lacZ. The assay can be described thus: NolA1-lacZ fusion β-galactosidase assay in B. japonicum. As to conditions: NolA3-lacZ fusions compared. Type of assay: cell-based, Bradyrhizobium japonicum. Here is the method:
as §1, with “Strains Bj110-42, BJAlac23, BJAlac12, BJAlac13 harbored nolA-lacZ translational fusions encoded on plasmids pBGALac1, pNMAlac23, pNMAlac13, pNMAlac12 respectively (Garcia et al. [1996] Mol. Plant-Microbe Interact. 9:625-635; Loh et al. [1999] J. Bacteriol. 181:1544-1554). Plasmid pNMAlac23 contained mutations to ATG2 and ATG3 of nolA and allowed the specific expression of NolA1-lacZ. In contrast, plasmids pNMAlac13 (mutations to ATG1 and ATG3) and pNMAlac12 (mutation to ATG1 and ATG3, Loh et al. [1999] J. Bacteriol. 181:1544-1554) only expressed NolA2-lacZ and NolA3-lacZ, respectively.” left out
As shown in Tables 2-3 and FIG. 11C, an inducer of nolA-lacZ and nodD2-lacZ expression was detected in conditioned medium from B. japonicum cultures grown to a high population density. […]

Assay [2] deals with nodulation of soybean by B. japonicum. The assay can be described thus: Soybean nodulation plant test in growth pouches. Type of assay: in vivo, Glycine max. The conditions noted are these: for Effect on nodulation of soybean (in words): B. japonicum cells pretreated 1 h, 10^7 cells per root, nodules counted 21 days post-inoculation. How it is done:
The significance of nod gene repression by both IND-1 and the quorum factor was also investigated in plant tests. Seeds of Glycine maxcv Essex were surface sterilized, placed in sterile growth pouches (Mega International, MN) and cultivated as described by Nieuwkoop et al. (Nieuwkoop et al. [1987] J. Bacteriol. 169:2631-2638). Each seedling was inoculated with 10^7 B. japonicum cells. Prior to inoculation of the roots, B. japonicum cells were incubated for 1 h with concentrated, conditioned medium that had been sterilized by filtration through a […] filter (Millipore, Bedford, Mass.). The conditioned medium was used at a final concentration of 10 μl per 1 ml of culture. At the time of inoculation, the location of the root tip was marked on the outside of the plastic growth pouch. Plants were watered with nitrogen free nutrient solution (Wacek and Brill [1976] Crop Sci. 15:519-523). At 21 days post-inoculation, the number of nodules on each root both above and below the root tip mark was recorded.

Setting [3] is: listed as phthalic acid bis-(2-ethyl-hexyl) ester.

“Also recorded” adds a separate entry of the source.

Regarding `O=c1c(-c2ccc(O)cc2)coc2cc(O)cc(O)c12` [genistein, reference compound], the “Induction of nodY-lacZ, β-galactosidase activity” value in the assay with nodY-lacZ (0.05 μM genistein for 5 h, with or without CM (A600 = 1.0), CPRG substrate, mean of two ± SD) is 366 ± 11 U. In addition, the “Induction of nolA expression (in words)” value with nolA-lacZ fusion is listed as “failed to induced nolA expression”. Also, the “nodC-lacZ induction by genistein” value with nodC-lacZ is listed as “Little or no nodC induction”.
On to `[Cl][Fe]([Cl])[Cl]` [Fe^3+, FeCl3], for which the “Effect on nodY-lacZ expression” value in the assay with nodY-lacZ is given as “corresponding increase in nodY-lacZ expression”; in the assay on nodY-lacZ (listed as FeCl3) it was “increase in the expression of a nodY-lacZ fusion protein”. Also, in the assay on CDF production, the “Effect on CDF production” value is “inhibit CDF production”. Besides, the “Effect on nolA expression at high culture densities” value in the assay on nolA-lacZ fusion (increasing concentrations of FeCl3 for five hours) is recorded as “significantly reduced the expression of nolA expression”.
For `CCCCC(CC)COC(=O)c1ccccc1C(=O)OCC(CC)CCCC` (stereo not shown) [IND-1, phthalic acid bis-(2-ethyl-hexyl) ester], in the assay with nodY-lacZ (B. japonicum at low population density, IND-1 in USDA110, USDA76, USDA31), the “Effect on nod gene (nodY-lacZ) induction by genistein (in words)” value was “reduced nodY-lacZ induction by genistein”. The “Percentage of nodules occupied by the NwsB mutant” value in assay [1] is listed as “increase the percentage of nodules that were occupied by the NwsB mutant”. In addition, in the assay on NolA1-lacZ, the “Which NolA form is affected (NolA1, NolA2, NolA3)” value is given as “affect only NolA1 expression”. The “Induction of nolA expression (in words)” value in the assay on nolA-lacZ fusion was “active on B. japonicum nolA-lacZ fusions; also recorded: capable of inducing nolA”; in the assay on nolA-lacZ fusion (setting [3]), “potent inducer of nolA; also recorded: strong inducer of NolA expression”. For the same compound, the results for the “Effect on nodulation of soybean (in words)” value in assay [2] and in assay [2] (setting [3]) were “reduced nodulation efficiency” and “inhibits nodulation”, respectively. In assay [2] (UV treated USDA61 A2 73 cells inoculated onto soybean roots), the “Nodule phenotype in the presence of BEHP” value is “delayed nodule phenotype”.
On to `O=c1c(-c2ccc(O)cc2)coc2cc(O)ccc12` [daidzein, reference compound], for which the “Induction of nolA expression (in words)” value in the assay on nolA-lacZ fusion is “failed to induced nolA expression”.

These data come from patent publication US6855536B2, “Materials and methods for the enhancement of effective root nodulation in legumes” (priority 2000, dated 2005).
